Assay results reported in patent US6723364B1, “Fog treatment method using a liquid composition for treating fruits and vegetables and implementing device” (Xeda International, priority 1998, dated 2004).
Converted amounts (≈) assume the structure as drawn. Where two headings read alike, the source gives them in different places.

Tests used:
Assay type in all cases: cell-based
[1] = test system: Erwinia carotovora; assay: Bactericidal activity in vitro in LB agar medium; settings: for MIC: Pectobacterium carotovorum, read-out: MIC (concentration needed to completely inhibit the growth of the bacteria)
Protocol: The bactericidal activity of eugenol and isoeugenol was evaluated in vitro and compared with that of other terpenes.
The culture medium used is the following LB medium:
Bactotryptone: 1% by weight
Yeast extract: 0.5% by weight
A suspension of bacteria at 10^6 CFU/ml was prepared in sterilized water from the LB medium. 200 μl of this bacterial suspension were added to 20 ml of presterilized LB culture medium brought to 55° C. The tested terpene is then added to the culture medium. After agitation, the medium is immediately divided among Petri dishes. The medium solidifies on cooling.
Incubation is carried out at 28° C. when the bacterium is Erwinia carotovora and at 37° C. when the bacterium is Escherichia coli.
The growth of mould in the culture medium is observed. The same experiment is carried out in the absence of terpene (control experiment).
The results are evaluated using the following assessment scale:
++: mould growth identical to the control
+: mould present with a marked reduction in growth with respect to the control
: complete absence of growth.
The results obtained for 3 different concentrations, namely 20, 80 and 320 μg/ml, in the case of the bacterium Erwinia carotovora are summarized in Table 7.
The protocol used is that described above.

[2] = test system: spores; assay: Germination of the spores in vitro, summary over the fungi tested; settings: summary of Tables 4 to 6
Protocol: (§1) The activity of eugenol and of isoeugenol on the germination of the spores was evaluated in vitro and compared with that of other terpenes.
(§2) The procedure of Example 4 is used to do this, except that the concentration of eugenol and of isoeugenol was set at x μg/ml in the culture media used and that 50 μl of a suspension of spores, adjusted to 100,000 spores/ml, are deposited in each Petri dish.
(§3) The same experiment was carried out starting with a terpene-free culture medium (control test).
(§4) The results obtained for 3 different concentrations of terpenes in the culture medium, namely 40 μg/ml, 80 μg/ml and 1280 μg/ml, are listed in Tables 4, 5 and 6.
A concentration of 40 μg/ml is sufficient to inhibit the germination of the spores.

[3] = test system: Alternaria alternata; assay: Germination of the spores in vitro; settings: AA;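 also: ++ germination like control and 0 no spores germinated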
Protocol: as §1, §2, §3
(§5) The results were evaluated using the following assessment criteria:
(§6) +: considerable reduction in the level of spores germinated
as §4

[4] = test system: Botrytis cinerea; assay: Germination of the spores in vitro; settings: BC
Protocol: as §1, §2, §3, §5, §6, §4

[5] = test system: Phytophtora parasitica; assay: Germination of the spores in vitro; settings: PhP
Protocol: as §1, §2, §3, §5, §6, §4

[6] = test system: Penicillium expansum; assay: Germination of the spores in vitro; settings: PE;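 also: ++ germination like control and 0 no spores germinated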
Protocol: as §1, §2, §3, §5, §6, §4

[7] = test system: Phlyctaena vagabonda (“Gloeosporium”); assay: Germination of the spores in vitro; settings: PV;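 also: ++ germination like control and 0 no spores germinated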
Protocol: as §1, §2, §3, §5, §6, §4

[8] = test system: Fusarium oxysporum; assay: Germination of the spores in vitro; settings: FO;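 also: ++ germination like control and 0 no spores germinated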
Protocol: as §1, §2, §3, §5, §6, §4

[9] = test system: Penicillium digitatum; assay: Germination of the spores in vitro; settings: PD
Protocol: as §1, §2, §3, §5, §6, §4

[10] = test system: Geocrichum candidum; assay: Germination of the spores in vitro; settings: GC
Protocol: as §1, §2, §3, §5, §6, §4

[11] = Concentration 320 μg/ml, 28° C.

Row | Compound | growth in the culture medium with respect to the control ([1]; Concentration 20 μg/ml, 28° C.) | growth in the culture medium with respect to the control ([1]; Concentration 80 μg/ml, 28° C.) | growth in the culture medium with respect to the control [1, 11] | germination of the spores ([3]; x = 40 μg/ml) | germination of the spores ([3]; x = 80 μg/ml) | germination of the spores ([3]; x = 1280 μg/ml) | germination of the spores ([4]; x = 40 μg/ml) | germination of the spores ([4]; x = 80 μg/ml) | germination of the spores ([4]; x = 1280 μg/ml) | germination of the spores ([5]; x = 40 μg/ml) | germination of the spores ([5]; x = 80 μg/ml) | germination of the spores ([5]; x = 1280 μg/ml) | germination of the spores ([6]; x = 40 μg/ml) | germination of the spores ([6]; x = 80 μg/ml) | germination of the spores ([6]; x = 1280 μg/ml) | germination of the spores ([7]; x = 40 μg/ml) | germination of the spores ([7]; x = 80 μg/ml) | germination of the spores ([7]; x = 1280 μg/ml) | germination of the spores ([8]; x = 40 μg/ml) | germination of the spores ([8]; x = 80 μg/ml) | further results
1 | C=CCc1ccc(O)c(OC)c1 [EUGENOL, eugenol] | + | − | − | 0 | 0 | 0 | 0 | 0 | 0 | 0 | 0 | 0 | 0 | 0 | 0 | 0 | 0 | 0 | 0 | 0 | MIC ([1]; Erwinia sp., 28° C.): 20 to 40 µg/mL (≈ 122 to 244 µM); concentration sufficient to inhibit the germination of the spores [2]: 40 µg/mL; germination of the spores ([8]; x = 1280 μg/ml): 0; germination of the spores ([9]; x = 40 μg/ml): 0; germination of the spores ([9]; x = 80 μg/ml): 0; germination of the spores ([9]; x = 1280 μg/ml): 0; germination of the spores ([10]; x = 40 μg/ml): 0; germination of the spores ([10]; x = 80 μg/ml): 0; germination of the spores ([10]; x = 1280 μg/ml): 0
2 | CC12CCC(CC1)C(C)(C)O2 [EUCALYPTOL, eucalyptol] | ++ | ++ | ++ | ++ | ++ | 0 | ++ | ++ | 0 | ++ | + | 0 | + | + | + | ++ | + | 0 | ++ | ++ | MIC ([1]; Erwinia sp., 28° C.): 320 to 640 µg/mL (≈ 2070 to 4150 µM); germination of the spores ([8]; x = 1280 μg/ml): 0; germination of the spores ([9]; x = 40 μg/ml): +; germination of the spores ([9]; x = 80 μg/ml): +; germination of the spores ([9]; x = 1280 μg/ml): +; germination of the spores ([10]; x = 40 μg/ml): ++; germination of the spores ([10]; x = 80 μg/ml): +; germination of the spores ([10]; x = 1280 μg/ml): 0
3 | CC=Cc1ccc(O)c(OC)c1 [ISOEUGENOL, isoeugenol] | + | − | − | 0 | 0 | 0 | ++ | 0 | 0 | 0 | 0 | 0 | 0 | 0 | 0 | 0 | 0 | 0 | 0 | 0 | MIC ([1]; Erwinia sp., 28° C.): 20 to 40 µg/mL (≈ 122 to 244 µM); concentration sufficient to inhibit the germination of the spores [2]: 40 µg/mL; germination of the spores ([8]; x = 1280 μg/ml): 0; germination of the spores ([9]; x = 40 μg/ml): 0; germination of the spores ([9]; x = 80 μg/ml): 0; germination of the spores ([9]; x = 1280 μg/ml): 0; germination of the spores ([10]; x = 40 μg/ml): 0; germination of the spores ([10]; x = 80 μg/ml): 0; germination of the spores ([10]; x = 1280 μg/ml): 0
4 | C=C(C)C1CC=C(C)C(=O)C1 (stereo not shown) [CARVONE, carvone] | ++ | + | − | + | 0 | 0 | + | 0 | 0 | 0 | 0 | 0 | + | 0 | 0 | + | 0 | 0 | + | 0 | MIC ([1]; Erwinia sp., 28° C.): 80 to 160 µg/mL (≈ 533 to 1070 µM); germination of the spores ([8]; x = 1280 μg/ml): 0; germination of the spores ([9]; x = 40 μg/ml): +; germination of the spores ([9]; x = 80 μg/ml): 0; germination of the spores ([9]; x = 1280 μg/ml): 0; germination of the spores ([10]; x = 40 μg/ml): +; germination of the spores ([10]; x = 80 μg/ml): 0; germination of the spores ([10]; x = 1280 μg/ml): 0
5 | C=CCc1ccc2c(c1)OCO2 [SAFROLE, safrole] | ++ | ++ | + | ++ | + | 0 | + | 0 | 0 | 0 | 0 | 0 | + | + | + | + | + | 0 | ++ | + | MIC [1]: 320 to 640 µg/mL (≈ 1970 to 3950 µM); germination of the spores ([8]; x = 1280 μg/ml): 0; germination of the spores ([9]; x = 40 μg/ml): +; germination of the spores ([9]; x = 80 μg/ml): +; germination of the spores ([9]; x = 1280 μg/ml): 0; germination of the spores ([10]; x = 40 μg/ml): ++; germination of the spores ([10]; x = 80 μg/ml): +; germination of the spores ([10]; x = 1280 μg/ml): 0
